Laboratory results: patent US20040062743A1, “Acid-containing desensitization agents for teeth” (priority 2002, published 2004)

How the values were obtained:
[1] = system: horse serum diluted with physiological common-salt solution, 2 mM CaCl2 (simulated dentinal fluid); assay: Measurement of the protein precipitation (weight of dried precipitate); assay type: biochemical; conditions: for Precipitate: average of 5 measurements
Protocol: Furthermore, acids which also have calcium-precipitating properties in addition to protein-precipitating properties are particularly preferred. Protein and calcium-precipitating properties are detected in standardized tests. Protein precipitation is measured as described in Example 6, the acids to be examined in the solution described in Example 5 (2nd component) being present in a concentration of 0.2 M. The acid-containing solution is mixed with the protein solution described in Example 6 and the mass of the obtained precipitate is determined. According to the invention, acids which yield a pellet weight of >25 mg, preferably >30 mg and in particular >40 mg are preferred. The upper limit of the pellet weight is determined by the masses of the components used. Acids which yield a quantitative precipitation under the described conditions are particularly suitable according to the invention.
Furthermore, CaCl2 (2 mM) was added to the diluted protein solution in order to adjust the calcium-ion concentration to that of dentinal fluid.
500 μl of the protein solution was then reacted with […] of the composition to be tested and the mixture was left to stand for 30 minutes at room temperature, centrifuged and the obtained precipitates dried at 75° C. and weighed.
For protein precipitation, the solution (2nd component) described in Example 5 was used which was reacted with phosphonic acid in concentrations of 10 mM to 200 mM (cf. Table 1). 5 precipitations per concentration were carried out and then the average of the determinations was calculated.

C=C(COCCP(=O)(O)O)C(=O)O [Example 1, 2-[4-(dihydroxyphosphoryl)-2-oxa-butyl]-acrylic acid]
Protein precipitation (in words) ([1]; 150 mM acid): quantitative
Precipitate ([1]; acid concentration 10 mM in solution (2nd component) of Example 5): 55.3 mg
Precipitate ([1]; acid concentration 25 mM in solution (2nd component) of Example 5): 58.2 mg
Precipitate ([1]; acid concentration 50 mM in solution (2nd component) of Example 5): 58.8 mg
Precipitate ([1]; acid concentration 75 mM in solution (2nd component) of Example 5): 69.1 mg
Precipitate ([1]; acid concentration 100 mM in solution (2nd component) of Example 5): 70.8 mg
Precipitate ([1]; acid concentration 150 mM in solution (2nd component) of Example 5): 74.2 mg
Precipitate ([1]; acid concentration 200 mM in solution (2nd component) of Example 5): 72.3 mg
melting point: 119 to 120 °C
